Measured values as given in a melting point compilation (Tetko et al.; mined from patent text by program, amines drawn as free bases though some values may be those of a salt).

`Cc1nc2ncnn2c2c1CCN2C1CCCCCCC1` showed a melting point of 188 to 190 °C. `N#CC1=CCC(c2ccccc2)c2ccccc21` (centres undefined) showed a melting point of 66 to 67 °C. In the case of `CCN(CC)C(=S)c1cccc(F)c1[Si](C)(C)C`, the melting point is reported as 71 to 73 °C. For `NC(=O)c1cnn2c1NCC=C2c1cccnc1`, the melting point was 182 to 184 °C. In the case of `CC(C)C1COc2ccccc2O1` (centres undefined), the melting point is reported as 124 to 125 °C. Compound `O=C(Nc1ncc(C(F)(F)F)o1)C1c2ccccc2Oc2cc(F)ccc21` (racemic) has a melting point of 250 °C. With `N#Cc1ccc(N(Cc2ccc(OS(N)(=O)=O)cc2)n2cnnc2)cc1-c1ccc(C(F)(F)F)cc1` the melting point was 177 to 180 °C. `COc1cc(CN)nc(SC)n1` gave a melting point of 35 to 38 °C. `O=CC(=Cc1cccc(OCc2ccccc2)c1)C(C=O)=Cc1cccc(OCc2ccccc2)c1` gave a melting point of 126 to 127 °C. With `CCCCc1ccc(-c2c(C)[nH]c(=O)n2C)cc1` the melting point was 180 °C. In the case of `NC1=CC(=O)CC(c2ccsc2)C1` (centres undefined), the melting point is reported as 142 to 143 °C. Work on `Cc1ncnn1-c1cc(F)ccc1CNC(=O)c1nc2n(c(=O)c1O)CCN2C(C)C` yielded a melting point of 212 °C. In the case of `COC(=O)CC(c1ccc(OC)c(OC)c1)N1C(=O)c2ccccc2C1=O` (centres undefined), the melting point is reported as 114 to 116 °C. Compound `O=c1[nH]c2cc(Br)cc(Br)c2c(=O)n1Cc1ccccc1Cl` has a melting point of 133 to 136 °C. `O=[N+]([O-])c1cc(C(F)(F)F)cc([N+](=O)[O-])c1Nc1c(Cl)cncc1Cl` showed a melting point of 138 to 140 °C. In the case of `COc1ccc(-n2cc(CCC(=O)NS(C)(=O)=O)c(-c3ccc(Cl)c(F)c3)n2)cc1Cl`, the melting point is reported as 211 to 212 °C. For `NS(=O)(=O)C1Cc2ccccc2CC1=O` (centres undefined), the melting point was 145 to 146 °C. In the case of `Cc1cccc(COc2cccc(OCc3coc(-c4cccc(F)c4)n3)c2)c1C(=O)O`, the melting point is reported as 152 to 154 °C. For `CCCCCCc1ccnc(-c2ccc(C(N)=O)cc2)n1`, the melting point was 232 to 233 °C. Compound `FC(F)(F)c1ccc(Nc2ccccc2C=C(Br)Br)cc1` has a melting point of 74 to 75 °C. Compound `CCCCC(=N)NC(=O)N(C)c1ccc(Cl)cc1` has a melting point of 59 to 61 °C. For `CN1CCN(C(=O)c2c(Br)c(Br)c([N+](=O)[O-])c3c2OCCO3)CC1`, the melting point was 164 °C. Compound `CCN1C(=O)C(C)(C)C(=O)N(C)c2cc(CN(CCn3c(=O)ccc4ccccc43)Cc3ccc(C)nc3C)ccc21` has a melting point of 159 to 160 °C. `Cc1[nH]c2ccc(CCN3CCCC3)cc2c1C(=O)OCc1ccccc1` gave a melting point of 76 to 78 °C. For `CC1(C)Oc2ccc(C#N)cc2[C@@H](N(C(N)=O)c2ccccc2)[C@@H]1O` (relative stereo), the melting point was 226 to 227 °C. With `CCCCCSc1ccc(-c2ncc(CCCCC)cn2)cc1` the melting point was 52.8 °C. For `COC(=O)C1=C(C)NC(C)=C(C(=O)OC)N1c1cccc(N)c1`, the melting point was 212 to 213 °C. `Cc1nc(-n2cc(-c3cccnc3)nn2)sc1C(=O)NCc1ccccc1` showed a melting point of 117 to 119 °C. `CCCc1nc2c(N)ncc(Br)c2n1CCOCCN` gave a melting point of 114 to 117 °C. With `COc1cc(CBr)cc2c(Br)ccc(OC(C)C)c12` the melting point was 126 °C. `NC(=O)c1cc(C(=O)O)c2c(c1)C(C(=O)O)CCN2` (centres undefined) gave a melting point of 265 to 266 °C. In the case of `CCc1nn2c(O)cc(O)nc2c1S(=O)(=O)c1ccccc1`, the melting point is reported as greater than 230 °C. Work on `CCCCC(Cc1ccc(OCCN(CC)CC)cc1)(C(=O)O)S(=O)(=O)c1ccc(OC)cc1` (centres undefined) yielded a melting point of 67 °C. Work on `Cn1cnc2ccc(-c3nnc(CCc4cccc(F)c4)o3)cc21` yielded a melting point of 145 to 146 °C. `O=C(c1ccc(Cl)cc1)C(Cc1nc[nH]n1)c1ccc(Cl)cc1Cl` (centres undefined) gave a melting point of 109 to 111 °C. `Cc1cc(C)n(-c2ccc(C#N)nn2)n1` showed a melting point of 187 to 189 °C. `Nc1ccn([C@H]2C=C[C@@H](O)C2)c(=O)n1` (racemic) gave a melting point of 241 to 242 °C. With `COc1ccc(C2CC(=O)N(c3ccncc3)C2=O)cc1` (centres undefined) the melting point was 179 to 180 °C. `COc1ccnc2[nH]cc(C(C)=O)c12` gave a melting point greater than 210 °C. Work on `CN(C)C(=O)COc1ccc2c(c1)C[C@@H](NC[C@H](O)c1ccc(O)c(CO)c1)CC2` yielded a melting point of 175 to 176 °C. Work on `CCC(=O)c1c(-c2cc(C)c(O)c(C)c2)c(C)n2c1-c1cc(OC)c(OC)cc1CC2` yielded a melting point of 188 to 190 °C. Work on `CCOC(=O)CN1CCN(C(C)(C)C=CC(=O)Nc2cc3c(Nc4ccc(F)c(Cl)c4)ncnc3cc2OCC2CC2)CC1` yielded a melting point of 165 to 167 °C. Work on `COC1=C(C(=O)c2ccc(OC)cc2)C(c2ccc(C(C)(C)C)cc2)N(c2nnc(C)s2)C1=O` (centres undefined) yielded a melting point of 235 to 237 °C. Compound `COCN(C(=O)CCl)c1c(OC)cccc1OC` has a melting point of 104 to 106 °C. `O=C(O)c1ccc(OCCCCl)cc1` gave a melting point of 136 to 138 °C. `Cc1nc(-c2ccccc2)sc1C(=O)NCc1ccc(OC(C)(C)C(=O)O)cc1` gave a melting point of 179 °C. `CN(N)c1nc2ccccc2o1` gave a melting point of 128 to 131 °C. In the case of `COC(=O)C1Cc2c([nH]c3ccccc23)C(c2ccccc2Br)N1C(=O)CCl` (centres undefined), the melting point is reported as 113 to 115 °C. Work on `CCN(CC)CCOc1ccc(C(O)(CC)c2ccccc2)cc1` (centres undefined) yielded a melting point of 113 °C. `COc1ccc(N=C=O)cc1` showed a melting point of 83 to 84 °C. With `NCC(=O)c1cccc2c(S(=O)(=O)n3c(CCC(=O)O)cc4cc(Cl)ccc43)cccc12` the melting point was 130 to 135 °C. `CC(C(N)=O)c1ccc(-c2cn3ccccc3n2)cc1` (centres undefined) showed a melting point of 219 to 220 °C. With `FC(F)(F)c1ccccc1-c1n[nH]c(-c2ccccc2C(F)(F)F)n1` the melting point was 190 to 192 °C. `Cn1nc(C(F)(F)F)c(CN2C(=O)C3(COc4cc5c(cc43)OCO5)c3ccccc32)c1Cl` (centres undefined) gave a melting point of 180 to 182 °C. Compound `CCCCc1nn(-c2ccccc2C(F)(F)F)c(=O)n1Cc1ccc(-c2ccccc2S(=O)(=O)NC(=O)c2ccccc2)cc1` has a melting point of 91 to 93 °C. Compound `COc1ccc(-c2cnc3[nH]c(=O)n(CC4CCCCC4)c3n2)cn1` has a melting point of 235 to 237 °C. `CCCN1CCCN(c2ccccc2)c2cc(Cl)ccc21` gave a melting point of 192 to 194 °C. `COc1cc(N2CCCN(C)CC2)ccc1Nc1ncc2ccc(-c3ccccc3N(C)S(C)(=O)=O)n2n1` showed a melting point of 98 to 105 °C. Compound `CC(C)c1ccc(-n2nc(O)c3c(=O)c4ccc(Cl)cc4[nH]c3c2=O)cc1` has a melting point of 393 to 394 °C. `O=C(c1ccc(I)cc1)c1ccc2noc(-c3cccc(Cl)c3)c2c1` showed a melting point of 196 °C. In the case of `NC(=O)N(O)Cc1sccc1Sc1ccc(Cl)cc1`, the melting point is reported as 111 to 113 °C. `O=C(CCc1ccccc1)Nc1ccc(C(=O)NN=C2C(=O)Nc3ccc(Br)cc32)cc1` showed a melting point of 326 °C. Work on `CC(C)(OCc1cc2nc(Cl)ccc2n1S(=O)(=O)c1ccc2c(c1)OCO2)C(=O)O` yielded a melting point of 172 °C. For `Cn1c(C(N)=O)nc([N+](=O)[O-])c1CBr`, the melting point was 220 to 222 °C. Work on `CCc1ccc2nn(-c3cc(C)ccc3O)nc2c1` yielded a melting point of 91 to 91.5 °C. With `Nc1nc(N)c2ncn(C3COC(CO)O3)c2n1` (single isomer, unassigned; (-)) the melting point was 237 to 239 °C. For `Cc1oc(-c2ccc(F)cc2)cc1CO`, the melting point was 80 to 82 °C. Compound `COc1cc(Cl)ccc1NC(=O)C1CCCn2c1nc(-c1ccncn1)cc2=O` (centres undefined) has a melting point of 251 to 253 °C. `CNC(=O)Oc1ccccc1` gave a melting point of 84 to 85 °C. For `Cc1cc(N)cnc1Oc1cccc(C(C)(C)C)c1`, the melting point was 83 to 84 °C. For `CC(C)(C)[Si](C)(C)OCC1(CO[Si](C)(C)C(C)(C)C)COc2cc(I)cc3c(=O)c(C(=O)NCc4ccc(Cl)cc4)cn1c23`, the melting point was 158 to 159 °C. In the case of `CN1C(=O)CN(c2cccc(C#N)c2)NC1=O`, the melting point is reported as 174 to 178 °C. With `CCc1ccnc(C(=O)c2[nH]c3ccc(Cl)cc3c2CC(=O)O)c1` the melting point was 217 to 218 °C. With `Cc1cc(C(=O)c2ccccc2)c(-n2c(C)nnc2CNC(=O)c2cc3ccccc3[nH]2)s1` the melting point was 231 to 233 °C. With `Clc1ccc(C2OC(c3ccncc3)=Nc3ccc(Cl)cc32)cc1` (centres undefined) the melting point was 140 to 141 °C. Work on `O=C(CCCl)NC12CCCC(C1)C1CCC2C1` (centres undefined) yielded a melting point of 192 to 195 °C. In the case of `C#CCOCc1c(C)nc2c(OCc3ccccc3C#N)cccn12`, the melting point is reported as 144 °C. Compound `CC(=O)Nc1cc(F)ccc1C(=O)NCCN1CCC(n2c(=O)[nH]c3ccccc32)CC1` has a melting point of 210 °C. Work on `CCN(CC)c1ccc(-n2c(CC(=O)O)c(C(=O)O)c3cc(Oc4cccc(Cl)c4)ccc32)cc1` yielded a melting point of 186 to 191 °C. Compound `CC1Cc2cc3c(cc2C1=O)C(C)(C)CCC3(C)C` (centres undefined) has a melting point of 74 to 75.5 °C. With `CCCc1nc2c(N)nc3cccnc3c2n1CC1(O)CCOC1` (centres undefined) the melting point was 171 to 173 °C. `COc1cc(C=O)ccc1OCC(O)CN1CCC(c2noc3cc(F)ccc23)CC1` (centres undefined) gave a melting point of 107 to 108 °C. `O=C(Nc1ccc(-n2nc(C(F)(F)F)cc2C2CC2)c(F)c1)c1cccc(F)c1F` gave a melting point of 132 to 135 °C. Work on `CC(Cl)(Cl)C(NC(=O)c1ccc(Cl)cc1)NC(=NC#N)Nc1cccnc1` (centres undefined) yielded a melting point of 185 to 187 °C. Work on `CCOC(=O)c1c(S(=O)(=O)c2ccccc2)cc(C(F)(F)F)nc1C(F)(F)F` yielded a melting point of 48 to 50 °C. Compound `CC1=C(Cc2ccc(NC(=O)OC(C)(C)C)cc2)C(=O)C2C=CC=CC2C1=O` (centres undefined) has a melting point of 148 to 149 °C. Compound `CCCCOc1cc(I)c(OCCCC)cc1I` has a melting point of 86 to 87.5 °C. Work on `COc1ccc2[nH]cc(CCCCN3CCN(c4ccc5oc(CO)cc5c4)CC3)c2c1` yielded a melting point of 159 °C. Compound `CC(C)N1CCC(c2c[nH]c3ccc(NS(C)(=O)=O)cc23)CC1` has a melting point of 104 to 108 °C. `CNC(=O)C(CC1CCCCC1)NC(=O)Nc1n[nH]c(=S)s1` (centres undefined) showed a melting point of 246 to 247 °C. In the case of `CCOC(=O)CC(O)CCCCCNC(=O)OCc1ccccc1` (centres undefined), the melting point is reported as 47 to 50 °C. `O=c1nc(-c2ccc3c(n2)CCCC3)sc2ccccc12` gave a melting point of 232 to 233 °C. `CCOCc1nnc2c(C(F)(F)F)c(Cl)ccn12` gave a melting point of 104 °C. For `COc1ccc(C(Cc2ccc(OCCc3nc(-c4ccccc4)oc3C)cc2)C(=O)O)cc1` (centres undefined), the melting point was 115 to 117 °C. With `O=C1c2ccccc2CN1[C@@H]1c2cc([N+](=O)[O-])ccc2OC(CF)(CF)[C@H]1O` (relative stereo) the melting point was 285 to 288 °C. Compound `CCOC(=O)c1cc(=O)c(-c2ccc(OCc3ccccc3)c(OCc3ccccc3)c2)co1` has a melting point of 122 to 125 °C. For `CC(=O)Nc1ccccc1N(CC(=O)OC(C)(C)C)C(=O)CN1C(=O)c2ccccc2C1=O`, the melting point was 170 °C. Compound `CCCCCCCCCCCCCCc1ccc(CCCCCC)c(OCC(O)CO)c1` (centres undefined) has a melting point of 46 to 47 °C. Work on `Nc1ccc(S(F)(F)(F)(F)F)cc1` yielded a melting point of 63 to 65 °C.
